Experimental data as given in ChEMBL document CHEMBL1641381, “Rapid access to new bioconjugates of betulonic acid via click chemistry” (2011).

How the values were obtained:
Type in all cases: functional
[1] = system: Mus musculus; assay: Antiinflammatory activity against histamine-induced mouse edema model assessed as inflammation index 20 mg/kg, po (untreated control = 32.6+/-3.1%)
[2] = system: Mus musculus; assay: Antiinflammatory activity against histamine-induced mouse edema model assessed as antiinflammatory effect 50 mg/kg, po (untreated control = 0%)
[3] = system: Mus musculus; assay: Antiinflammatory activity against histamine-induced mouse edema model assessed as inflammation index 50 mg/kg, po (untreated control = 32.6+/-3.1%)
[4] = system: Mus musculus; assay: Antioxidant activity agains CCl4-induced hepatitis mouse model assessed as TBARS level in serum at 20 mg/kg, po (untreated control = 100%)
[5] = system: Mus musculus; assay: Antiinflammatory activity against histamine-induced mouse edema model assessed as edema size 50 mg/kg, po (untreated control = 100%)
[6] = system: Mus musculus; assay: Antioxidant activity agains CCl4-induced hepatitis mouse model at 20 mg/kg, po (untreated control = 0%)
[7] = system: Mus musculus; assay: Antiinflammatory activity against histamine-induced mouse edema model assessed as edema size 20 mg/kg, po (untreated control = 100%)
[8] = system: Mus musculus; assay: Antiinflammatory activity against histamine-induced mouse edema model assessed as antiinflammatory effect 20 mg/kg, po (untreated control = 0%)

Structure (SMILES) | Activity [1] [%] | Activity [2] [%] | Activity [3] [%] | Activity [4] [%] | level, % of control at 50 mg/kg [5] [%] | Activity [6] [%] | level, % of control at 20 mg/kg [7] [%] | Activity [8] [%]
C=C(C)[C@@H]1CC[C@]2(C(=O)Nc3ccc(-c4cn(CCCCCC)nn4)cc3)CC[C@]3(C)[C@H](CC[C@@H]4[C@@]5(C)CCC(=O)C(C)(C)[C@@H]5CC[C@]43C)[C@@H]12 | 29 | 13 | 28.4 | 66 | 87.1 | 34 | 89 | 11
C=C(C)[C@@H]1CC[C@]2(C(=O)Nc3ccc(-c4cn(Cc5ccccc5)nn4)cc3)CC[C@]3(C)[C@H](CC[C@@H]4[C@@]5(C)CCC(=O)C(C)(C)[C@@H]5CC[C@]43C)[C@@H]12 | 34.1 | 21 | 25.6 | 58 | 78.5 | 42 | 105 | 0
C=C(C)[C@@H]1CC[C@]2(C(=O)Nc3ccc(-c4cn(-c5ccc(C(C)=O)cc5)nn4)cc3)CC[C@]3(C)[C@H](CC[C@@H]4[C@@]5(C)CCC(=O)C(C)(C)[C@@H]5CC[C@]43C)[C@@H]12 | 35.4 | 26 | 24.2 | 40 | 74.2 | 60 | 109 | 0
C=C(C)[C@@H]1CC[C@]2(C(=O)Nc3ccc(-c4cn(-c5ccc(OC)cc5)nn4)cc3)CC[C@]3(C)[C@H](CC[C@@H]4[C@@]5(C)CCC(=O)C(C)(C)[C@@H]5CC[C@]43C)[C@@H]12 | 25.6 | 22 | 25.4 | 41 | 77.9 | 59 | 78.5 | 21
O=C1c2c(O)cc(O)cc2O[C@H](c2ccc(O)c(O)c2)[C@H]1O [(+)-TAXIFOLIN] | – | – | – | 57 | – | 43 | – | –
COc1ccc2c(c1)c(CC(=O)O)c(C)n2C(=O)c1ccc(Cl)cc1 [INDOMETHACIN] | 12.2 | – | – | – | – | – | 37.4 | 63
